Results: patent US20220273678A1 (priority 2020, published 2022)
“Also recorded” adds a separate entry of the source. Counter-ions that a name gives are not always drawn. Like-named read-outs stand apart in the source and are kept apart here.

Key:
[1] = test system: IL-6, IL-10; assay type: cell-based, human
[2] = test system: SARS-CoV-2; assay: microbe, parasite or virus in culture; assay type: cell-based
[3] = test system: Nrf2, Keap1, HO-1; assay: Nrf2, Keap1 and HO-1 protein levels in Calu3 cells, flow cytometry; assay type: cell-based, human; conditions: for HO-1 protein levels: Calu3, 10 μM DMF, 100-1000 nM Mito-MES, Mito-MES with DMF, 0.25 μM Brusatol, 10 μM 4F; for protein levels of Keap (Keap1) / protein levels of Nrf2: infected and uninfected Calu3
[4] = test system: Calu3 cells; assay: XTT cell cytotoxicity assay in uninfected Calu3 cells; assay type: cell-based, human
Protocol: (§1) To measure cell viability to determine if there was any treatment-induced cytotoxicity, cells were plated and treated with drugs as described above. Cells were exposed to the same dilution series created for the in vitro efficacy studies. As above, vehicle-treated cells served as the 0% cytotoxicity control. After 24 h, cell viability was measured on a Synergy 2 Biotek microplate reader (Biotek Inc) via the XTT Cell Proliferation Assay Kit (ATCC® 30-1011K™) according to the manufacturer's protocol. Similar data were obtained in three independent experiments.

[5] = test system: IL-6, IL-1β, IL-8, IL-10, TNF-α; assay type: cell-based, human; conditions: 0.25 μM brusatol; for release of IL-6 from infected cells: 10 μM DMF, 10-100 μM DMF+100-1000 nM Mito-MES
[6] = test system: icSARS-CoV-2-mNG; assay type: cell-based, SARS-CoV-2
[7] = test system: uninfected cells; assay: XTT cell cytotoxicity assay in similarly treated uninfected cultures (Mito-TEMPO, 4F); assay type: cell-based; conditions: Mito-TEMPO 10-1000 nM
Protocol: as §1

[8] = test system: icSARS-CoV-2-mNG; assay type: cell-based, SARS-CoV-2; remark: listed apart in the source
[9] = test system: hACE2 HEK293T cells and ALI HAE cultures; conditions: 1000 nM

**Q.** Which “secretion / release of IL-6” value [1] does the source give for `COC1=C(OC)C(=O)C(C/C=C(\C)CC/C=C(\C)CC/C=C(\C)CC/C=C(\C)CC/C=C(\C)CC/C=C(\C)CC/C=C(\C)CC/C=C(\C)CC/C=C(\C)CCC=C(C)C)=C(C)C1=O` [CoQ10, Coenzyme Q10] here?
**A.** Its value is “reduced subsequent release of IL-6”.

**Q.** Which “release of progeny SARS-CoV-2 virus particles, TCID50 assay” value ([2]; Calu3, 10 μM DMF pretreatment 24 h, alone or with 10-1000 nM Mito-MES) does the source give for `COC(=O)/C=C/C(=O)OC` [DMF, dimethyl fumarate] here?
**A.** Its value is “had anti-SARS-CoV-2 activity; also recorded: reduction in subsequent release of progeny SARS-CoV-2 virus particles”.

**Q.** And the “Viral replication by flow cytometry at 48 hpi in Calu3 cells” value (“Viral replication by flow cytometry” below) ([2]; DMF 10 μM, Mito-MES 100 nM, Mito-MES 100 nM+DMF 10 μM, […])?
**A.** Its value is 5.4%.

**Q.** What about the “Viral replication by flow cytometry” value ([2]; DMF 100 μM, Mito-MES 100 nM+DMF 100 μM, control 9.3%) of the same molecule?
**A.** The value was 2.1%.

**Q.** What about the HO-1 protein levels [3] of the same molecule?
**A.** The HO-1 protein levels was “increased protein levels of heme oxygenase-1 (HO-1)”.

**Q.** And the “protein levels of Keap (Keap1)” value [3]?
**A.** The value was “reduced protein levels of the endogenous Nrf2 inhibitor, Keap1; also recorded: reduced protein levels of Keap”.

**Q.** And the “protein levels of Nrf2” value [3]?
**A.** Its value is “did not impact protein levels of Nrf2”.

**Q.** What about the “cytotoxicity, XTT cell cytotoxicity assay” value ([4]; 100 μM DMF, 24 h) of the same molecule?
**A.** Its value is “cytotoxic”.

**Q.** And the “release of IL-6 from infected cells” value [5]?
**A.** Its value is “reduction in subsequent release of IL-6”.

**Q.** How did the “antiviral activity against fluorescent SARS-CoV-2” value [6] turn out when `CC1(C)CC(NC(=O)C[P+](c2ccccc2)(c2ccccc2)c2ccccc2)CC(C)(C)N1[O]` [Mito-TEMPO] was run?
**A.** Its value is “potent and similar antiviral activity”.

**Q.** And the “cytotoxicity, XTT cell cytotoxicity assay” value [7]?
**A.** Its value is “no observed cytotoxicity”.

**Q.** And the “antiviral activity against fluorescent SARS-CoV-2” value [8]?
**A.** Its value is “potent and similar antiviral activity”.

**Q.** For `CCCCCCCCCC[P+](c1ccccc1)(c1ccccc1)c1ccccc1.[Br-]` [dTPP], which cytotoxicity [9] is on record?
**A.** Its cytotoxicity is “not cytotoxic”.

**Q.** And the “antiviral activity, viral replication by TCID50-assay” value ([2]; Calu3, dTPP 1000 nM)?
**A.** The value was “Antiviral activity was observed”.

**Q.** What about the “secretion / release of IL-6” value [1] of the same molecule?
**A.** Its value is “reduced subsequent release of IL-6”.

**Q.** What about the “cytotoxicity, XTT assay” value ([4]; uninfected Calu3, dTPP 1000 nM) of the same molecule?
**A.** Its value is “not cytotoxic”.

**Q.** With brusatol as the molecule, how does the “percent of infected Calu3 cells positive for the N protein, flow cytometry (data not shown)” value ([2]; 10 nM Mito-MES+10 μM DMF, 0.25 μM brusatol) read?
**A.** The value was “directly enhanced SARS-CoV-2 infection”.

**Q.** And the “effect of brusatol on the antiviral effect of DMF and Mito-MES” value ([2]; Calu3, 0.25 μM brusatol 24 h)?
**A.** The value was “inhibited the antiviral effect of both DMF alone and Mito-MES”.

**Q.** What about the “release of progeny virus / SARS-CoV-2 replication, TCID50” value ([2]; Calu3, 0.25 μM brusatol pretreatment) of the same molecule?
**A.** Its value is “significantly increased SARS-CoV2 replication; also recorded: significantly increased subsequent release of progeny SARS-CoV-2 virus particles”.

**Q.** And the “Viral replication by flow cytometry” value ([2]; Mito-MES 1000 nM, Brusatol 250 nM, Mito-MES 1000 nM+Brusatol 250 nM)?
**A.** Its value is 39.9%.

**Q.** What about the HO-1 protein levels [3] of the same molecule?
**A.** Its HO-1 protein levels is “increased the HO-1 protein levels”.

**Q.** And the “protein levels of Keap (Keap1)” value [3]?
**A.** Its value is “increased protein levels of Keap”.

**Q.** And the “protein levels of Nrf2” value [3]?
**A.** Its value is “reduced protein levels of Nrf2”.

**Q.** And the “effect of brusatol on the anti-inflammatory effect of Mito-MES (IL-6)” value ([5]; Calu3)?
**A.** Its value is “inhibited the anti-inflammatory effect of Mito-MES”.

**Q.** And the “release of IL-6 from infected cells” value [5]?
**A.** The value was “significantly increased subsequent release of IL-6”.
